From patent US20250074888A1, “PYRIDAZINE DERIVATIVES AS MODULATORS OF NLRP3 INFLAMMASOME AND RELATED METHODS” (Neumora Therapeutics, Inc., priority 2021, published 2025)

Key:
[1] = test system: IL-6; assay: IL-6 release from LPS-primed, nigericin-treated THP1 macrophages, Hu IL-6 AlphaLISA; assay type: cell-based; conditions: Homo sapiens, THP-1; PMA-differentiated THP1, LPS 20 ng/ml 3 hrs, compound 1 hr, Nigericin 6.7 uM 3 hrs, supernatant
[2] = target: NLRP3 inflammasome (Homo sapiens, UniProt Q96P20); assay: NLRP3 inflammasome activation in THP1 macrophages (LPS priming, nigericin), IL-1β AlphaLISA; assay type: cell-based; conditions: PMA-differentiated THP1, LPS 20 ng/ml 3 hrs, compound 1 hr, Nigericin 6.7 uM 3 hrs, supernatant
Chain of NLRP3 inflammasome (Q96P20 whole entry): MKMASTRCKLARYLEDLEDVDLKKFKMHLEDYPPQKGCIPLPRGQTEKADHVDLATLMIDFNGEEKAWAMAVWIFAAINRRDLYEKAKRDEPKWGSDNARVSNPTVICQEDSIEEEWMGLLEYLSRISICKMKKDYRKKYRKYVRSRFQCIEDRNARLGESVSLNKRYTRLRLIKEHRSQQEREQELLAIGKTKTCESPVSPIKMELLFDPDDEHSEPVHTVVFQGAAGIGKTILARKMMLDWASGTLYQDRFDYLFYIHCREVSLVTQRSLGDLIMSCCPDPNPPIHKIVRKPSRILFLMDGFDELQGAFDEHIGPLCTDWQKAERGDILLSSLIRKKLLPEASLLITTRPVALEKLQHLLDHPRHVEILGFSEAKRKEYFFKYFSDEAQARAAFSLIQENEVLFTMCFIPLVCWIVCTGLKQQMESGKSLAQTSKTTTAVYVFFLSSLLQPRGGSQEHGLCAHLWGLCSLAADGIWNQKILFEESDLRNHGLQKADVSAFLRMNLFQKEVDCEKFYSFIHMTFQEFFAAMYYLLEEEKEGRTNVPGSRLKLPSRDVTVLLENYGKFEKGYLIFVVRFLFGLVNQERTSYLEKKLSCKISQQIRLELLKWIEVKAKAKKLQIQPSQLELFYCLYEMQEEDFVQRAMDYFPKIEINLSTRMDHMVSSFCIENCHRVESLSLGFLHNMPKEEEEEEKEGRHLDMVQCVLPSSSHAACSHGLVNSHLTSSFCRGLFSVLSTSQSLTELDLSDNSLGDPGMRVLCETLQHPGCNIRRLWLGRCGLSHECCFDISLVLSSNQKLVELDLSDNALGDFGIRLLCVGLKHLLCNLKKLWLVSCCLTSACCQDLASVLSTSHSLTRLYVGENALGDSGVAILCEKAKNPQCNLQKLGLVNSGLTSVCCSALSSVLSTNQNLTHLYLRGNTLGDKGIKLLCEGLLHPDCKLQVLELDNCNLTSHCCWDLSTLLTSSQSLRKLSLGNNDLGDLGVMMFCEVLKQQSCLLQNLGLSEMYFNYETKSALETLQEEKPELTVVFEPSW

| SMILES | IC50 [1] [µM] | IC50 [2] [µM] |
| --- | --- | --- |
| Cc1cc(N[C@H]2CN(C)CC[C@H]2F)nnc1-c1ccc(C(F)(F)F)cc1 [compound 74, N-((3S,4R)-4-fluoro-1-methylpiperidin-3-yl)-5-methyl-6-(4-(trifluoromethyl)-phenyl)pyridazin-3-amine] | > 10 | > 1 |
| Cc1cc(-c2cccc(Cl)c2)nnc1N[C@@H]1CCCN(C)C1 [compound 77] | 5 to 10 | > 1 |
| CCc1cccc(-c2cc(C)c(N[C@@H]3CCCN(C)C3)nn2)c1 [compound 78] | > 10 | > 1 |
| Cc1cc(-c2cccc(C(C)C)c2)nnc1N[C@@H]1CCCN(C)C1 [compound 79] | > 10 | > 1 |
| Cc1cc(-c2ccc(C#N)cc2)nnc1N[C@@H]1CCCN(C)C1 [compound 80] | > 10 | > 1 |
| Cc1cc(-c2ccc(OC(F)(F)F)cc2)nnc1N[C@@H]1CCCN(C)C1 [compound 81] | > 10 | > 1 |
| Cc1ccc(-c2cc(C)c(N[C@@H]3CCCN(C)C3)nn2)cc1 [compound 82] | > 10 | > 1 |
| CN1CCC[C@@H](Nc2ccc(-c3ccccc3)nn2)C1 [compound 84] | > 10 | > 1 |
| Cc1ccccc1-c1ccc(N[C@@H]2CCCN(C)C2)nn1 [compound 85] | > 10 | > 1 |
| Cc1cc(-c2ccc(C(F)(F)F)cc2)nnc1N[C@H]1CN(C)CC[C@H]1F [compound 88] | > 10 | > 1 |
| Cc1cc(-c2ccccc2C#N)nnc1N[C@@H]1CCCN(C)C1 [compound 90] | > 10 | > 1 |
| Cc1ccc(-c2cc(C(F)(F)F)c(N[C@@H]3CCCN(C)C3)nn2)cc1 [compound 91] | > 10 | > 1 |
| Cc1cc(-c2ccc(C3CC3)cc2)nnc1N[C@@H]1CCCN(C)C1 [compound 94] | > 10 | > 1 |
| Cc1cc(-c2ccc(C3CCC3)cc2)nnc1N[C@@H]1CCCN(C)C1 [compound 95] | 5 to 10 | > 1 |
| COc1cc(N[C@@H]2CCCN(C)C2)nnc1-c1ccc(C(F)(F)F)cc1 [compound 101] | > 10 | > 1 |
| COc1cc(-c2ccc(C(F)(F)F)cc2)nnc1N[C@@H]1CCCN(C)C1 [compound 102] | > 10 | > 1 |
| CN1CCC[C@@H](Nc2nnc(-c3ccc(C(F)(F)F)cc3)cc2C#N)C1 [compound 103] | > 10 | > 1 |
| Cc1cc(-c2ccc(C(F)(F)F)c(Cl)c2)nnc1N[C@@H]1CCCN(C)C1 [compound 105] | > 10 | > 1 |

| SMILES | IC50 [1] [µM] | IC50 [2] [µM] |
| --- | --- | --- |
| Cc1cc(-c2ccc(F)c(C#N)c2)nnc1N[C@@H]1CCCN(C)C1 [compound 109] | > 10 | > 1 |
| CN1CCC[C@@H](Nc2nnc(-c3ccc(C(F)(F)F)cc3)cc2C(F)(F)F)C1 [compound 111] | > 10 | > 1 |
| Cc1cc(-c2ccc(C(F)(F)F)c(C#N)c2)nnc1N[C@@H]1CCCN(C)C1 [compound 113] | > 10 | > 1 |
| Cc1cc(N[C@@H]2CCCN(CC(F)(F)F)C2)nnc1-c1ccc(C(F)(F)F)cc1 [compound 114] | > 10 | > 1 |
| Cc1cc(N[C@@H]2CCCN(CC(F)(F)F)C2)nnc1-c1ccc(F)cc1 [compound 115] | 5 to 10 | > 1 |
| Cc1cc(N[C@H]2CN(C)CC(F)(F)C2)nnc1-c1ccc(F)cc1 [compound 119] | > 10 | > 1 |
| Cc1cc(N[C@H]2CN(C)CC[C@H]2F)nnc1-c1ccc(F)cc1 [compound 121] | > 10 | 0.1 to 0.5 |
| Cc1cc(-c2ccc(Cl)cc2)nnc1N[C@@H]1CCCN(C)C1 [compound 128] | > 10 | 0.1 to 0.5 |
| CN1CCC[C@@H](Nc2ccc(-c3ccc(Cl)cc3)nn2)C1 [compound 129] | > 10 | 0.05 to 0.1 |
| Cc1cc(N[C@H]2CCCN(C(C)C)C2)nnc1-c1ccc(C(F)(F)F)cc1 [compound 131] | > 10 | 0.5 to 1 |
| Cc1cc(N[C@H]2CN(C)CC[C@@H]2F)nnc1-c1ccc(C(F)(F)F)cc1 [compound 136] | 5 to 10 | 0.05 to 0.1 |
| Cc1cc(N[C@@H]2C[C@H](F)CN(C)C2)nnc1-c1ccc(C(F)(F)F)cc1 [compound 137] | > 10 | 0.1 to 0.5 |
| Cc1cc(N[C@H]2CN(C)CC[C@@H]2F)nnc1-c1ccc(F)cc1 [compound 138] | > 10 | > 1 |
| Cc1cc(N[C@@H]2C[C@H](F)CN(C)C2)nnc1-c1ccc(F)cc1 [compound 139] | 5 to 10 | 0.5 to 1 |
| Cc1cc(N[C@@H]2C[C@@H](F)CN(C)C2)nnc1-c1ccc(F)cc1 [compound 140] | > 10 | > 1 |
| Cc1cc(N(C)[C@@H]2CCCN(C)C2)nnc1-c1ccc(C(F)(F)F)cc1 [compound 142, (R)—N,5-dimethyl-N-(1-methylpiperidin-3-yl)-6-(4-(trifluoromethyl)phenyl)pyridazin-3-amine] | 1 to 5 | 0.1 to 0.5 |
| Cc1cc(N[C@@H]2C[C@@H](F)CN(C(C)C)C2)nnc1-c1ccc(C(F)(F)F)cc1 [compound 144] | 5 to 10 | 0.1 to 0.5 |

Next, values leading:

| IC50 [1] [µM] | IC50 [2] [µM] | SMILES |
| --- | --- | --- |
| 5 to 10 | > 1 | COc1cc(C(F)(F)F)cc(C)c1-c1ccc(N[C@@H]2CCCN(C)C2)nn1 [compound 75] |
| 5 to 10 | > 1 | Cc1cc(N[C@@H]2CCCN(C)C2)nnc1-c1ccc(O)c(C)c1C(F)(F)F [compound 76] |
| > 10 | > 1 | Cc1ccccc1-c1nnc(N[C@@H]2CCCN(C)C2)cc1C [compound 87] |
| > 10 | > 1 | Cc1cc(N[C@@H]2CCCN(C)C2)nnc1-c1ccccc1C#N [compound 89] |
| > 10 | > 1 | Cc1cccc(-c2cc(C)c(N[C@@H]3CCCN(C)C3)nn2)c1 [compound 92] |
| > 10 | 0.01 to 0.05 | Cc1cc(N[C@@H]2CCCN(C)C2)nnc1-c1ccc(C2CC2)cc1 [compound 93] |
| > 10 | > 1 | Cc1cc(N[C@@H]2CCCN(C)C2)nnc1-c1ccc(F)cc1C#N [compound 96] |
| > 10 | > 1 | Cc1cc(-c2ccc(F)cc2C#N)nnc1N[C@@H]1CCCN(C)C1 [compound 97] |
| > 10 | > 1 | Cc1cc(-c2ccc(F)cc2F)nnc1N[C@@H]1CCCN(C)C1 [compound 98] |
| > 10 | 0.5 to 1 | Cc1cc(-c2nnc(N[C@@H]3CCCN(C)C3)cc2C)ccc1C(F)(F)F [compound 99] |
| > 10 | > 1 | Cc1cc(-c2cc(C)c(N[C@@H]3CCCN(C)C3)nn2)ccc1C(F)(F)F [compound 100] |
| > 10 | > 1 | Cc1cc(N[C@@H]2CCCN(C)C2)nnc1-c1ccc(O)cc1 [compound 104] |
| > 10 | > 1 | Cc1cc(-c2ccc(N[C@@H]3CCCN(C)C3)nn2)cc(C)c1F [compound 106] |
| > 10 | > 1 | Cc1cc(-c2cc(C)c(F)c(C)c2)nnc1N[C@@H]1CCCN(C)C1 [compound 107] |
| > 10 | > 1 | Cc1cc(N[C@@H]2CCCN(C)C2)nnc1-c1ccc(F)c(C#N)c1 [compound 108] |
| 5 to 10 | > 1 | Cc1cc(F)cc(C)c1-c1ccc(N[C@@H]2CCCN(C)C2)nn1 [compound 110] |
| > 10 | > 1 | Cc1cc(-c2cc(C)c(N[C@@H]3CCCN(C)C3)nn2)ccc1F [compound 112] |

| IC50 [1] [µM] | IC50 [2] [µM] | SMILES |
| --- | --- | --- |
| > 10 | > 1 | Cc1cc(N[C@@H]2CCCN(CC(F)F)C2)nnc1-c1ccc(F)cc1 [compound 116] |
| > 10 | > 1 | Cc1cc(-c2ccc(F)c(F)c2)nnc1N[C@@H]1CCCN(C)C1 [compound 117] |
| > 10 | > 1 | Cc1cc(N[C@H]2CCCN(C)C2)nnc1-c1ccc(C(F)(F)F)cc1 [compound 118] |
| > 10 | 0.05 to 0.1 | Cc1cc(N[C@@H]2CCCN(C3CC3)C2)nnc1-c1ccc(F)cc1 [compound 120] |
| > 10 | 0.01 to 0.05 | CCN1CCC[C@@H](Nc2cc(C)c(-c3ccc(F)cc3)nn2)C1 [compound 122] |
| > 10 | ≤ 0.01 | Cc1cc(Cl)ccc1-c1nnc(N[C@@H]2CCCN(C)C2)cc1C [compound 123] |
| 5 to 10 | 0.01 to 0.05 | Cc1cc(Cl)ccc1-c1cc(C)c(N[C@@H]2CCCN(C)C2)nn1 [compound 124] |
| > 10 | 0.05 to 0.1 | Cc1cc(Cl)ccc1-c1ccc(N[C@@H]2CCCN(C)C2)nn1 [compound 125] |
| > 10 | > 1 | CN1CCC[C@@H](Nc2ccc(-c3ccc(F)cc3)nn2)C1 [compound 126] |
| > 10 | ≤ 0.01 | Cc1cc(N[C@@H]2CCCN(C)C2)nnc1-c1ccc(Cl)cc1 [compound 127] |
| 5 to 10 | 0.01 to 0.05 | CN1CCC[C@@H](Nc2ccc(-c3ccc(F)cc3C(F)(F)F)nn2)C1 [compound 130] |
| > 10 | 0.01 to 0.05 | Cc1cc(F)ccc1-c1nnc(N[C@@H]2CCCN(C)C2)cc1C [compound 132] |
| > 10 | 0.01 to 0.05 | Cc1cc(F)ccc1-c1cc(C)c(N[C@@H]2CCCN(C)C2)nn1 [compound 133] |
| > 10 | 0.1 to 0.5 | Cc1cc(F)ccc1-c1ccc(N[C@@H]2CCCN(C)C2)nn1 [compound 134] |
| > 10 | 0.01 to 0.05 | Cc1cc(N[C@@H]2CCCN(C(C)C)C2)nnc1-c1ccc(F)cc1 [compound 135] |
| > 10 | > 1 | Cc1cc(C(F)(F)F)c(C)cc1-c1ccc(N[C@@H]2CCCN(C)C2)nn1 [compound 141] |
| > 10 | 0.01 to 0.05 | CN1CCC[C@@H](Nc2cc(F)c(-c3ccc(C(F)(F)F)cc3)nn2)C1 [compound 143] |
